Drawing on PubChem BioAssay (NCI), this text covers GI50 and TGI for eight molecules.

Values joined by “and” are separate entries in the source; they are usually repeats but may differ in a detail not shown here. Identical values can stand only once.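 These data come from cells grown in 96-well plates and exposed to compound for 48 hours at five concentrations. GI50: concentration for 50% inhibition of growth. TGI: total growth inhibition.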 Bounds are passed on as bounds.

Among the test systems are DU-145 prostate; NCI-H226 lung; MCF7 breast; TK-10 renal; OVCAR-8 ovarian; SK-MEL-28 melanoma; MDA-MB-231 breast; SK-MEL-2 melanoma; 786-0 renal; A498 renal.
Holding throughout (assay): inhibition of tumour cell growth, NCI panel, 48 h

As for `C=C1N(C)c2ccc(Cl)cc2C1(C)C`, the GI50 was 6.66 µM with DU-145 prostate; 16.4 µM in the test with NCI-H226 lung; 6.65 µM with MCF7 breast; 14.7 µM in the test with TK-10 renal; 9.67 µM in the test on OVCAR-8 ovarian; 19.7 µM in the test with SK-MEL-28 melanoma. The GI50 in the test with MDA-MB-231 breast is 16.7 µM; with SK-MEL-2 melanoma it was 13.5 µM; in the test with 786-0 renal, 16.9 µM; in the test with A498 renal, 11 µM. The TGI was over 100 µM with DU-145 prostate; over 100 µM in the test with NCI-H226 lung; 58.7 µM in the test with MCF7 breast; 69.2 µM in the test on TK-10 renal; over 100 µM in the test with OVCAR-8 ovarian; over 100 µM with SK-MEL-28 melanoma. Moreover, the TGI turned out to be 57.4 µM with MDA-MB-231 breast, 42.8 µM with SK-MEL-2 melanoma, 96.1 µM in the test with 786-0 renal and 43.6 µM in the test with A498 renal.
For the molecule `CC(=O)OCC1OC(n2c(-c3ccccc3)c(C)c(C)c(C#N)c2=S)C(OC(C)=O)C(OC(C)=O)C1OC(C)=O` (stereo not given), the GI50 with DU-145 prostate is 36.9 µM and > 100 µM; in the test with TK-10 renal, 48.6 µM and > 100 µM; in the test on OVCAR-8 ovarian, 17.6 µM and > 100 µM; in the test on SK-MEL-2 melanoma it was 35.5 µM and 14.6 µM; in the test on 786-0 renal, 6.84 µM and 23.2 µM. For the same molecule, the TGI in the test on DU-145 prostate, in the test on NCI-H226 lung, with MCF7 breast, with TK-10 renal, in the test on OVCAR-8 ovarian and in the test with SK-MEL-28 melanoma was over 100 µM each time. In addition, the TGI was > 50 µM and 30.9 µM in the test with MDA-MB-231 breast; > 50 µM and 41.3 µM with SK-MEL-2 melanoma; 19.3 µM and 56.1 µM in the test with 786-0 renal; over 100 µM with A498 renal.
As for `Nc1nc2c(c3cnccc13)C(c1cccc(Cl)c1)Cc1cnccc1-2` (stereo not given), the GI50 with DU-145 prostate was 0.309 µM; in the test with NCI-H226 lung, 0.673 µM; with MCF7 breast, 0.292 µM; with TK-10 renal it was 0.696 µM; in the test on OVCAR-8 ovarian it was 0.601 µM; in the test on SK-MEL-28 melanoma it was 2.6 µM. The GI50 in the test with MDA-MB-231 breast was 0.763 µM; in the test on SK-MEL-2 melanoma, 0.374 µM; with 786-0 renal, 0.396 µM; with A498 renal, 0.275 µM. For the same molecule, the TGI with DU-145 prostate was found to be 4.65 µM; in the test with NCI-H226 lung, 14.7 µM; with MCF7 breast, 11.6 µM; in the test on TK-10 renal it was 13.7 µM; with OVCAR-8 ovarian, 22.5 µM; in the test with SK-MEL-28 melanoma, 20.6 µM. The TGI in the test on MDA-MB-231 breast was 11 µM; in the test with SK-MEL-2 melanoma, 5.25 µM; in the test with 786-0 renal, 10.6 µM; with A498 renal, 0.852 µM.
Regarding `CC(C)Oc1ccc(C(=O)N[C@H](CNC(=O)CN(C)C)Cc2ccc(-c3cn4cccc([C@H](C)O)c4n3)cc2)cc1Cl`, the GI50 in the test on DU-145 prostate was 0.0385 µM; in the test on NCI-H226 lung it was 10.9 µM; in the test on MCF7 breast it was 0.0366 µM; with TK-10 renal, 11.8 µM; with OVCAR-8 ovarian, 0.0674 µM; with SK-MEL-28 melanoma, 4 µM. Besides, the GI50 with MDA-MB-231 breast is 0.0445 µM; in the test on SK-MEL-2 melanoma it was 0.0434 µM; with 786-0 renal, 0.0578 µM; in the test on A498 renal, 0.213 µM. Moreover, the TGI in the test with DU-145 prostate was 13.1 µM; in the test with NCI-H226 lung, 28.8 µM; in the test with MCF7 breast it was 19.5 µM; in the test on TK-10 renal, 24.6 µM; in the test with OVCAR-8 ovarian, 26.6 µM; in the test with SK-MEL-28 melanoma, 20.3 µM. Further, the TGI came to 8.2 µM in the test with MDA-MB-231 breast, 11.1 µM in the test on SK-MEL-2 melanoma, 17.8 µM in the test on 786-0 renal and 13.9 µM with A498 renal.
Turning to `Cn1c(=S)sc2nc3ccccc3n2c1=S`, the TGI in the test with DU-145 prostate turned out to be 19 µM; with NCI-H226 lung, 58.7 µM; in the test with MCF7 breast, 5.49 µM; in the test with TK-10 renal it was 55.4 µM; in the test on OVCAR-8 ovarian, 30.1 µM; with SK-MEL-28 melanoma, 25.1 µM. For the same molecule, the TGI with MDA-MB-231 breast was 38 µM; in the test on SK-MEL-2 melanoma, over 100 µM; in the test on 786-0 renal, 33.6 µM; in the test on A498 renal, 46.9 µM.
Take `NC[C@@](O)(c1ccc(Cl)cc1)c1ccc(-c2cn[nH]c2)cc1`: the GI50 is 3.27 µM and 2.49 µM in the test with DU-145 prostate; 1.42 µM and 2.19 µM in the test with NCI-H226 lung; 1.1 µM with MCF7 breast; 0.083 µM and 0.268 µM with TK-10 renal; 1.63 µM in the test on OVCAR-8 ovarian; 3.97 µM with SK-MEL-28 melanoma. Besides, the GI50 with MDA-MB-231 breast is 3.24 µM and 2.76 µM; in the test on SK-MEL-2 melanoma, 1.89 µM; in the test on 786-0 renal, 0.341 µM and 0.473 µM; in the test with A498 renal it was 0.438 µM and 0.313 µM. Also, the TGI was over 100 µM in the test on DU-145 prostate; over 100 µM with NCI-H226 lung; 2.54 µM in the test on MCF7 breast; 0.875 µM and 1.54 µM in the test on TK-10 renal; 3.43 µM in the test on OVCAR-8 ovarian; over 10 µM with SK-MEL-28 melanoma. Besides, the TGI with MDA-MB-231 breast is 52.3 µM and > 10 µM; in the test with SK-MEL-2 melanoma, 4.5 µM; in the test with 786-0 renal it was 10.6 µM and 2.2 µM; in the test with A498 renal it was > 23.5 µM and 7.45 µM.
As to `COc1cc(OC)cc(-c2cncn2-c2ccc(-c3nc4cc(OC)c(OC)c(OC)c4s3)cc2)c1`, the GI50 in the test with DU-145 prostate was 31.1 µM; with NCI-H226 lung, 21.7 µM; with MCF7 breast, 4.02 µM; in the test on TK-10 renal it was 26.4 µM; with OVCAR-8 ovarian it was 13.4 µM; in the test with SK-MEL-28 melanoma, 31.6 µM. The GI50 in the test on MDA-MB-231 breast is 19.2 µM; in the test on SK-MEL-2 melanoma, 6.16 µM; in the test on 786-0 renal it was 10.3 µM; in the test with A498 renal, over 100 µM. Also, the TGI with DU-145 prostate, with NCI-H226 lung, in the test on MCF7 breast, in the test with TK-10 renal, in the test with OVCAR-8 ovarian and with SK-MEL-28 melanoma was over 100 µM in each case. Besides, the TGI in the test with MDA-MB-231 breast, with SK-MEL-2 melanoma, with 786-0 renal and in the test with A498 renal was over 100 µM in each case.
`O=C(Nc1ccc(Br)cc1F)c1cc(Br)ccc1O`: the GI50 was 1.47 µM in the test with DU-145 prostate; 0.688 µM in the test with NCI-H226 lung; 0.906 µM in the test on MCF7 breast; 3.12 µM in the test on TK-10 renal; 0.959 µM in the test with OVCAR-8 ovarian; 0.4 µM with SK-MEL-28 melanoma. The GI50 was 1.09 µM in the test with MDA-MB-231 breast, 0.387 µM in the test with SK-MEL-2 melanoma, 1.66 µM in the test with 786-0 renal and 0.246 µM in the test with A498 renal. Moreover, the TGI in the test on DU-145 prostate stood at 23.1 µM; in the test with NCI-H226 lung, 7.76 µM; with MCF7 breast, 8.96 µM; in the test on TK-10 renal it was 12.3 µM; in the test on OVCAR-8 ovarian, 15.4 µM; in the test with SK-MEL-28 melanoma it was 2.13 µM. In addition, the TGI worked out at 4.9 µM in the test on MDA-MB-231 breast, 2.42 µM in the test with SK-MEL-2 melanoma, 6.26 µM in the test with 786-0 renal and 1.12 µM in the test with A498 renal.
